Reference: PubChem BioAssay AID1919009 (Molecular Pharmacology Branch, DTP, NCI, 2023)

System: K24384-001-R-PDC complex spheroid growth
Assay: Anticancer human tumor K24384-001-R-PDC patient-derived pancreatic adenocarcinoma cell line growth inhibition [AhR]
Conditions: for IC50: curve of first compound; for viability, T/C: stronger effect = lower value
Procedure, shortened: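 Spheroids combined tumor cells with HUVEC endothelial cells and human MSCs as stroma. AhR antagonists were paired with standard or investigational drugs, each dosed in half-log steps down from near clinical Cmax, or from 10 microM where Cmax was unknown.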

[1] = second compound 0.1 µM, first compound 0.00949 µM
[2] = second compound 0.1 µM, first compound 0.03 µM
[3] = second compound 0.1 µM, first compound 0.0949 µM
[4] = second compound 0.1 µM, first compound 0.3 µM
[5] = second compound 0.316 µM, first compound 0.00949 µM
[6] = second compound 0.316 µM, first compound 0.03 µM
[7] = second compound 0.316 µM, first compound 0.0949 µM
[8] = second compound 0.316 µM, first compound 0.3 µM
[9] = second compound 1 µM, first compound 0.00949 µM
[10] = second compound 1 µM, first compound 0.03 µM
[11] = second compound 1 µM, first compound 0.0949 µM
[12] = second compound 1 µM, first compound 0.3 µM
[13] = second compound 3.16 µM, first compound 0.00949 µM
[14] = second compound 3.16 µM, first compound 0.03 µM
[15] = second compound 3.16 µM, first compound 0.0949 µM
[16] = second compound 3.16 µM, first compound 0.3 µM
[17] = second compound 10 µM, first compound 0.00949 µM
[18] = second compound 10 µM, first compound 0.03 µM
[19] = second compound 10 µM, first compound 0.0949 µM
[20] = second compound 10 µM, first compound 0.3 µM
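Wherever viability, T/C is given: percent of DMSO vehicle-treated spheroid viability set as 100%.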

SMILES	IC50 (second compound 0.1 µM) [nM]	IC50 (second compound 0.316 µM) [nM]	IC50 (second compound 1 µM) [nM]	IC50 (second compound 3.16 µM) [nM]	IC50 (second compound 10 µM) [nM]	viability, T/C [1] [%]	viability, T/C [2] [%]	viability, T/C [3] [%]	viability, T/C [4] [%]	viability, T/C [5] [%]	viability, T/C [6] [%]	viability, T/C [7] [%]	viability, T/C [8] [%]	viability, T/C [9] [%]	viability, T/C [10] [%]	viability, T/C [11] [%]	viability, T/C [12] [%]	viability, T/C [13] [%]	viability, T/C [14] [%]	viability, T/C [15] [%]	further results
CCN(c1cc(-c2ccc(CN3CCOCC3)cc2)cc(C(=O)NCc2c(C)cc(C)[nH]c2=O)c1C)C1CCOCC1 + CC(CO)NC(=O)c1cc(-c2ccc(Cl)cc2)nn(-c2cnn(C)c2)c1=O	> 3000	> 3000	> 3000	> 3000	> 3000	119	125	122	107	117	135	125	120	107	139	154	144	122	123	113	viability, T/C (second compound 0.1 µM, first compound 0.949 µM): 95.4%; viability, T/C (second compound 0.1 µM, first compound 3 µM): 91.8%; viability, T/C (second compound 0.316 µM, first compound 0.949 µM): 98.2%; viability, T/C (second compound 0.316 µM, first compound 3 µM): 98.9%; viability, T/C (second compound 1 µM, first compound 0.949 µM): 102%; viability, T/C (second compound 1 µM, first compound 3 µM): 90.8%; viability, T/C [16]: 119%; viability, T/C (second compound 3.16 µM, first compound 0.949 µM): 113%; viability, T/C (second compound 3.16 µM, first compound 3 µM): 119%; viability, T/C [17]: 117%; viability, T/C [18]: 123%; viability, T/C [19]: 118%; viability, T/C [20]: 107%; viability, T/C (second compound 10 µM, first compound 0.949 µM): 99.4%; viability, T/C (second compound 10 µM, first compound 3 µM): 102%
Nc1ncn(C2CC(O)C(CO)S2)c(=O)n1 (stereo not given) + CC(CO)NC(=O)c1cc(-c2ccc(Cl)cc2)nn(-c2cnn(C)c2)c1=O	> 300	> 300	> 300	> 300	> 300	114	74.6	84.4	72.4	134	88.3	98.2	69.8	148	125	92.2	65.5	119	118	92.6	viability, T/C (second compound 0.1 µM, first compound 0.000949 µM): 115%; viability, T/C (second compound 0.1 µM, first compound 0.003 µM): 126%; viability, T/C (second compound 0.316 µM, first compound 0.000949 µM): 118%; viability, T/C (second compound 0.316 µM, first compound 0.003 µM): 130%; viability, T/C (second compound 1 µM, first compound 0.000949 µM): 137%; viability, T/C (second compound 1 µM, first compound 0.003 µM): 127%; viability, T/C (second compound 3.16 µM, first compound 0.000949 µM): 87.3%; viability, T/C (second compound 3.16 µM, first compound 0.003 µM): 124%; viability, T/C [16]: 76.2%; viability, T/C (second compound 10 µM, first compound 0.000949 µM): 105%; viability, T/C (second compound 10 µM, first compound 0.003 µM): 106%; viability, T/C [17]: 136%; viability, T/C [18]: 107%; viability, T/C [19]: 105%; viability, T/C [20]: 83.4%
